Experimental data from patent US20120164756A1, “ASPIRIN ASSAY” (RANDOX LABORATORIES LIMITED, priority 2009, published 2012).

How the values were obtained:
[1] = test system: antibodies raised from SUA-BTG; assay: Biochip-based competitive immunoassay (salicyluric acid dose-response curve and cross-reactivity profile); assay type: binding, sheep; conditions: Concentration 350 μg/ml
Procedure: In order to generate polyclonal antisera, the immunogen (prepared in Example 2) was mixed with primary complete Freund's Adjuvant (Sigma) and injected into a host sheep to provide target-specific polyclonal antisera. On a monthly basis the immunogen (with incomplete Freund's Adjuvant) was injected into the sheep. The host animal was bled to yield a suitable volume of specific antiserum. IgG was then extracted from the antisera via Caprylic acid/ammonium sulphate precipitation of immunoglobulin.
Nine calibrator solutions of salicyluric acid (0-5.00 μg/ml) were prepared in calibrator buffer for standard curves. Cross-reactants (aspirin, 4-aminosalcylic acid, benzoic acid, diflusinal, gentisic acid, gentisuric acid, ibuprofen, methyl salicylate, salicylic acid and salsalate) were diluted in calibrator buffer (0-350 μg/ml). Assay diluent (155 μl), sample/antigen (25 μl), and diluted conjugate (Hapten 1-HRP 120 μl) were added to biochips wells. Biochips were incubated for 30 min at 30° C. in a thermoshaker at 370 rpm, and then washed with TBST buffer (2 quick washes followed by 4 washes with 2 min intervals). Biochips were developed with 250 μl luminol plus: peroxide (1:1) for 2 min in the dark, and were then imaged on the Randox Investigator (2×60 sec images).

[2] = cited from earlier work; for share of excreted product: excretion after aspirin ingestion; for kinetics of formation: hepatic metabolism of salicylic acid
[3] = cited from earlier work
[4] = after ingestion of a therapeutic amount of aspirin

SMILES | % Cross-reactivity [1] | share of excreted product [2] | kinetics of formation [2] | also measured
O=C(O)c1ccccc1 [Benzoic acid] | <<1.00% |  |  | 
Nc1ccc(C(=O)O)c(O)c1 [4-aminosalicylic acid] | <<1.00% |  |  | 
O=C(O)c1cc(-c2ccc(F)cc2F)ccc1O [Diflusinal] | <<1.00% |  |  | 
COC(=O)c1ccccc1O [Methyl salicylate] | <<1.00% |  |  | 
O=C(O[C@@H]1O[C@H](C(=O)O)[C@@H](O)[C@H](O)[C@H]1O)c1ccccc1O [salicylacyl glucuronide] |  | approximately 5% | first-order kinetics | 
O=C(O)c1ccccc1O [Salicylic acid, salicylic acid] | <<1.00% | approximately 10% |  | time of peak levels [2, 4]: 1 to 2 h; half-life ([2]; in serum): approximately 6 hours; therapeutic level in blood ([3]; blood of a healthy adult): 150 to 300 mg/L
O=C(O)CNC(=O)c1cc(O)ccc1O [Gentisuric acid] | <<1.00% |  |  | 
CC(=O)Oc1ccccc1C(=O)O [Aspirin, 2-acetoxybenzoic acid] | <<1.00% |  |  | time until only trace levels remain [2, 4]: ≤ 2 h; moderately toxic concentration (MTC), aspirin equivalent ([3]; Chyka et al (2007)): 6.5 g; toxic concentration, aspirin ingestion ([3]; general literature): > 300 mg/kg; concentrations considered to be toxic ([3]; serum): exceeding 300 mg/l; therapeutic concentration range in serum ([3]; serum): 150 to 300 mg/L
O=C(O)CNC(=O)c1ccccc1 [Hippuric acid] | <<1.00% |  |  | 
O=C(O)c1ccccc1O[C@@H]1O[C@H](C(=O)O)[C@@H](O)[C@H](O)[C@H]1O [salicylphenolic glucuronide] |  | approximately 8% | Michaelis-Menten or zero-order kinetics | 
O=C(O)c1cc(O)ccc1O [Gentisic acid] | <<1.00% | approximately 1% | first-order kinetics | 
O=C(O)CNC(=O)c1ccccc1O [Salicyluric acid, salicyluric acid] |  | approximately 75% | Michaelis-Menten or zero-order kinetics | 
CC(C)Cc1ccc(C(C)C(=O)O)cc1 (stereo not drawn) [Ibuprofen] | <<1.00% |  |  | 
